Experimental data: ChEMBL document CHEMBL3046573, “Baseline sensitivity of Pestalotiopsis microspora, which causes black spot disease on Chinese hickory (Carya cathayensis), to pyraclostrobin” (Crop Prot, 2012)
In brackets after ≈: the same amount, converted by molar mass.

Assays:
[1] = system: Pestalotiopsis microspora; test: Fungicidal activity against Pestalotiopsis microspora infected in Chinese hickory orchards assessed as conidium germination inhibition at 25 degC after 24 hr; type: functional, organism-based
[2] = system: Pestalotiopsis microspora; test: Fungicidal activity against Pestalotiopsis microspora infected Chinese hickory orchards assessed as mycelial growth inhibition at 25 degC after 5 days; type: functional, organism-based; conditions: 120 h
[3] = system: Pestalotiopsis microspora; test: Resistance factor, ratio of EC50 for pyraclostrobin-resistant mutant Pestalotiopsis microspora isolate LA1R2 to EC50 for wild type Pestalotiopsis microspora isolate LA-1; type: functional
[4] = system: Pestalotiopsis microspora; test: Resistance factor, ratio of EC50 for pyraclostrobin-resistant mutant Pestalotiopsis microspora isolate LA1R1 to EC50 for wild type Pestalotiopsis microspora isolate LA-1; type: functional
[5] = system: Pestalotiopsis microspora; test: Fungicidal activity against pyraclostrobin-resistant mutant Pestalotiopsis microspora isolate CA8R3 assessed as conidium germination inhibition at 25 degC; type: functional, organism-based
[6] = system: Pestalotiopsis microspora; test: Fungicidal activity against pyraclostrobin-resistant mutant Pestalotiopsis microspora isolate CA8R2 assessed as conidium germination inhibition at 25 degC; type: functional, organism-based
[7] = system: Pestalotiopsis microspora; test: Fungicidal activity against pyraclostrobin-resistant mutant Pestalotiopsis microspora isolate CA8R1 assessed as conidium germination inhibition at 25 degC; type: functional, organism-based
[8] = system: Pestalotiopsis microspora; test: Fungicidal activity against wild type Pestalotiopsis microspora isolate CA-8 assessed as conidium germination inhibition at 25 degC; type: functional, organism-based
[9] = system: Pestalotiopsis microspora; test: Fungicidal activity against pyraclostrobin-resistant mutant Pestalotiopsis microspora isolate LA1R2 assessed as conidium germination inhibition at 25 degC; type: functional, organism-based
[10] = system: Pestalotiopsis microspora; test: Fungicidal activity against pyraclostrobin-resistant mutant Pestalotiopsis microspora isolate LA1R1 assessed as conidium germination inhibition at 25 degC; type: functional, organism-based
[11] = system: Pestalotiopsis microspora; test: Fungicidal activity against wild type Pestalotiopsis microspora isolate LA-1 assessed as conidium germination inhibition at 25 degC; type: functional, organism-based
[12] = system: Pestalotiopsis microspora; test: Resistance factor, ratio of EC50 for pyraclostrobin-resistant mutant Pestalotiopsis microspora isolate CA8R3 to EC50 for wild type Pestalotiopsis microspora isolate CA-8; type: functional
[13] = system: Pestalotiopsis microspora; test: Resistance factor, ratio of EC50 for pyraclostrobin-resistant mutant Pestalotiopsis microspora isolate CA8R2 to EC50 for wild type Pestalotiopsis microspora isolate CA-8; type: functional
[14] = system: Pestalotiopsis microspora; test: Resistance factor, ratio of EC50 for pyraclostrobin-resistant mutant Pestalotiopsis microspora isolate CA8R1 to EC50 for wild type Pestalotiopsis microspora isolate CA-8; type: functional
[15] = system: Pestalotiopsis microspora; test: Fungicidal activity against Pestalotiopsis microspora isolates infected Chinese hickory orchards by conidium germination test; type: functional, organism-based

| Structure (SMILES) | EC50 [1] [µg/mL] | EC50 [2] [µg/mL] | Ratio EC50 [3] | Ratio EC50 [4] | EC50 [5] [µg/mL] | EC50 [6] [µg/mL] | EC50 [7] [µg/mL] | EC50 [8] [µg/mL] | EC50 [9] [µg/mL] | EC50 [10] [µg/mL] | EC50 [11] [µg/mL] | Ratio EC50 [12] | Ratio EC50 [13] | Ratio EC50 [14] | EC50 [15] [µg/mL] |
| --- | --- | --- | --- | --- | --- | --- | --- | --- | --- | --- | --- | --- | --- | --- | --- |
| CC(=O)O.CCCCCCCCCCCCNC(=N)N [DODINE] | 32.7 | 27 |  |  |  |  |  |  |  |  |  |  |  |  |  |
| CO/C=C(/C(=O)OC)c1ccccc1Oc1cc(Oc2ccccc2C#N)ncn1 [AZOXYSTROBIN] | 1.36 (≈ 3.37 µM) | 2.61 (≈ 6.47 µM) | 38.16 | 14.94 | 15.4 (≈ 38.2 µM) | 21.9 (≈ 54.3 µM) | 17.3 (≈ 42.9 µM) | 0.76 (≈ 1.88 µM) | 12.2 (≈ 30.3 µM) | 4.78 (≈ 11.8 µM) | 0.32 (≈ 0.793 µM) | 20.25 | 28.82 | 22.75 |  |
| COC(=O)NC(=S)Nc1ccccc1NC(=S)NC(=O)OC [THIOPHANATE METHYL] | 25.7 (≈ 75 µM) | 1.45 (≈ 4.23 µM) |  |  |  |  |  |  |  |  |  |  |  |  |  |
| COC(=O)N(OC)c1ccccc1COc1ccn(-c2ccc(Cl)cc2)n1 [PYRACLOSTROBIN] | 0.08 (≈ 0.206 µM) | 0.92 (≈ 2.37 µM) | 406 | 179 | 4.25 (≈ 11 µM) | 9.59 (≈ 24.7 µM) | 8.17 (≈ 21.1 µM) | 0.04 (≈ 0.103 µM) | 12.2 (≈ 31.4 µM) | 5.67 (≈ 14.6 µM) | 0.03 (≈ 0.0774 µM) | 106 | 240 | 204 | 0.13 (≈ 0.335 µM) |
| CC1COC(Cn2cncn2)(c2ccc(Oc3ccc(Cl)cc3)cc2Cl)O1 (configuration not stated) [DIFENOCONAZOLE] | 28.5 (≈ 70.1 µM) | 4.27 (≈ 10.5 µM) |  |  |  |  |  |  |  |  |  |  |  |  |  |
| CC(C)(C)C(O)(CCc1ccc(Cl)cc1)Cn1cncn1 (configuration not stated) [TEBUCONAZOLE] | 20.1 (≈ 65.3 µM) | 1.42 (≈ 4.61 µM) |  |  |  |  |  |  |  |  |  |  |  |  |  |
| O=C(Nc1ccccc1-c1ccc(Cl)cc1)c1cccnc1Cl [BOSCALID] | 23.9 (≈ 69.7 µM) | 167 (≈ 486 µM) | 1.02 | 0.98 | 19 (≈ 55.4 µM) | 17.7 (≈ 51.6 µM) | 18.1 (≈ 52.7 µM) | 18.6 (≈ 54.2 µM) | 20.6 (≈ 60 µM) | 19.7 (≈ 57.4 µM) | 20.1 (≈ 58.6 µM) | 1.05 | 0.95 | 0.97 |  |
| N#Cc1c(Cl)c(Cl)c(Cl)c(C#N)c1Cl [CHLOROTHALONIL] | 3.05 (≈ 11.5 µM) | 2.08 (≈ 7.82 µM) |  |  |  |  |  |  |  |  |  |  |  |  |  |
| CC(C)NC(=O)N1CC(=O)N(c2cc(Cl)cc(Cl)c2)C1=O [IPRODIONE] | 9.87 (≈ 29.9 µM) | 2.03 (≈ 6.15 µM) |  |  |  |  |  |  |  |  |  |  |  |  |  |
| CC12CC1(C)C(=O)N(c1cc(Cl)cc(Cl)c1)C2=O (configuration not stated) [PROCYMIDONE] | 12 (≈ 42.3 µM) | 1.68 (≈ 5.91 µM) |  |  |  |  |  |  |  |  |  |  |  |  |  |
